Tests used:
[1] = tested on: MIF-induced proliferation of mouse NIH 3T3 fibroblasts; test: MIF-induced proliferation in mouse fibroblasts (3H-thymidine incorporation); type: cell-based; conditions: for Mean cpm (3H-thymidine incorporation): Compound (10×^10−6M) + MIF 50 ng/ml, nil 1087, MIF + vehicle 1452
Protocol: The activity of compounds was studied in a bioassay utilising MIF-induced proliferation of mouse NIH 3T3 fibroblasts. […] NIH 3T3 cells were propagated in DMEM/10% foetal calf serum (FCS). Prior to experimentation, cells were seeded at 10^4 cells/well in 96-well plates in DMEM/10% FCS for 18 hours. The media was then replaced with DMEM/0.1% FCS and the cells incubated for a further 18 hr. At time point −1 hr, culture medium was replaced with DMEM/0.1% FCS and cells were treated with a compound of the invention at a final concentration of 10 μM or vehicle. At time point zero, cells were treated with MIF at a final concentration of 50 ng/ml. At time point 6 hr the cells were pulsed with 1 µCi/well of ^3H-thymidine. At time point 24 hours, cells were harvested using a semi-automated cell harvester. The radioactivity incorporated into DNA was determined by liquid scintillation counting, with results expressed as ^3H-thymidine incorporation (cpm). Statistical significance was analysed using the Mann-Whitney test.

[2] = tested on: LPS-IFN—induced nitrite production; test: MIF-dependent nitrite production in peritoneal macrophages (Greiss assay); type: cell-based, mouse; conditions: Mus musculus, Peritoneal macrophage, LPS 10 ng/ml + interferon-γ 10 units/ml, 24 h, read-out: % Inhibition of nitrite (± SD); for inhibition at 100 µM: compound 100 μM; for inhibition at 33 µM: compound 33 μM
Protocol: MIF is able to induce or facilitate the expression and release of a wide variety of pro-inflammatory and/or destructive molecules, including the release of macrophage nitric oxide (NO) ^(20). A compound with the ability to inhibit the cytokine or biological function of MIF might be expected to inhibit the activation of NO production by macrophages.
C57BL6/J male mice were injected intraperitoneally with 2 ml of thioglycolate. Three days later peritoneal macrophages were collected by lavaging the peritoneum with 3 ml of cold Hank's buffered saline solution. Cells from several mice were pooled, washed and re-suspended in DMEM supplemented with 5% FCS. Cells were plated in 96 well plastic tissue culture plates at 1×10^5 cells/well. Cells were treated in triplicate wells with compound or vehicle for 1 hour in a 5% CO2 incubator at 37° C. Cells were then treated with LPS (10 ng/ml) and recombinant human interferon-γ (10 units/ml) and incubated for 24 hours. After 24 hours, 50 μl of supernatant from each well was carefully removed and transferred to ELISA plates. The production of NO was measured by analysing the concentration of nitrite in culture supernatants, as measured by the Greiss assay ^(21). The results were calculated as the percentage inhibition of nitrite concentration in compound-treated cell culture supernatants, compared to that of vehicle-treated cells.

Row | Compound | Mean cpm (3H-thymidine incorporation) [1] [cpm] | inhibition at 100 µM [2] [%] | further results
1 | COc1ccc(-c2ccc(OC(F)(F)F)cc2)cc1 [Compound 36, 4-Methoxy-4′-(trifluoromethoxy)-1,1′-biphenyl] | 1033 | 57 ± 1 | –
2 | c1csc(-c2ccc(C3NCCS3)cc2)c1 (stereo not shown) [Compound 15, 2-[4-(2-Thienyl)phenyl]-1,3-thiazolane] | 955.6 | 12 ± 1 | –
3 | COc1ccc(C2OCCS2)cc1 (stereo not shown) [Compound 27, 2-(4-Methoxyphenyl)-1,3-oxathiolane] | – | 24 ± 1 | –
4 | CCCCCCC1(c2ccc(C)cc2)OCCO1 [Compound 19, 2-Hexyl-2-(4-methylphenyl)-1,3-dioxolane] | 1209 | – | –
5 | COc1cc(C2OCCS2)cc(OC)c1OC (stereo not shown) [Compound 28, 2-(3,4,5-Trimethoxyphenyl)-1,3-oxathiolane] | 1219 | – | –
6 | CC1CSC(c2ccc(F)c(C#N)c2)O1 (stereo not shown) [Compound 35, 2-Fluoro-5-(5-methyl-1,3-oxathiolan-2-yl)benzenecarbonitrile] | – | 18 ± 2 | –
7 | CCCCC1(c2ccc(Br)cc2)OCCC(CCC)S1 (stereo not shown) [Compound 39, 2-(4-bromophenyl)-2-butyl-4-propyl-1,3-oxathiane] | 956.1 | – | –
8 | N#Cc1ccc(C2OCCO2)cc1 [Compound 40, 4-(1,3-Dioxolan-2-yl)benzenecarbonitrile] | 1143 | 7 ± 2 | –
9 | CC1(c2ccc(Cl)cc2)OCCCO1 [Compound 20, 2-(4-Chlorophenyl)-2-methyl-1,3-dioxane] | 1214 | – | –
10 | CCCCCCCCC1(c2ccc(O)cc2)OC(C)CS1 (stereo not shown) [Compound 34, 4-(5-Methyl-2-octyl-1,3-oxathiolan-2-yl)phenol] | – | 24 ± 1 | –
11 | CC1(c2ccc([N+](=O)[O-])cc2)OCCCO1 [Compound 26, 2-(4-Nitrophenyl)-2-methyl-1,3-dioxane] | 1141 | – | –
12 | COc1ccc(-c2ccc(OC(F)(F)F)cc2)c(OC)n1 [Compound 14, 2,6-Dimethoxy-3-[4-(trifluoromethoxy)phenyl]pyridine] | 1420 | 27 ± 3 | –
13 | Cc1ccc(C2(C)OCCO2)cc1 [Compound 23, 2-Methyl-2-(4-methylphenyl)-1,3-dioxolane] | 1344 | – | –
14 | CCCCC1(c2ccc(Br)cc2)OCCC(CCC)S1 (stereo not shown) [Compound 38, 2-(4-bromophenyl)-2-butyl-4-propyl-1,3-oxathiane] | – | 35 | –
15 | Cc1ccc(C2=NCCO2)cc1 [Compound 45, 2-(4-Methylphenyl)-4,5-dihydro-1,3-oxazole] | – | 7 ± 1 | –
16 | COc1cc(C2OCCS2)ccc1O (stereo not shown) [Compound 29, 2-Methoxy-4-(1,3-oxathiolan-2-yl)phenol] | 1157 | 9 ± 1 | –
17 | Cc1ccc(C2(C)OCCCO2)cc1 [Compound 22, 2-Methyl-2-(4-methylphenyl)-1,3-dioxane] | 1310 | – | –

Row | Compound | Mean cpm (3H-thymidine incorporation) [1] [cpm] | inhibition at 100 µM [2] [%] | further results
18 | CCCCC1(c2ccc(Br)cc2)OCCO1 [Compound 11, 2-(4′-Bromophenyl)-2-butyl-1,3-dioxolane] | 1245 | – | inhibition at 33 µM [2]: 19 ± 1%
19 | COc1ccc(-c2ccc(C(F)(F)F)cc2)c(OC)n1 [Compound 37, 2,6-Dimethoxy-3-[4-(trifluoromethyl)phenyl]pyridine] | 1045 | 24 ± 1 | –
20 | CCC1(c2ccc(Br)cc2)OCCS1 (stereo not shown) [Compound 31, 2-(4-Bromophenyl)-2-ethyl-1,3-oxathiolane] | – | 35 ± 3 | –
21 | CC1(c2ccc([N+](=O)[O-])cc2)OCCO1 [Compound 25, 2-(4-Nitrophenyl)-2-methyl-1,3-dioxolane] | 1117 | – | inhibition at 33 µM [2]: 7 ± 1%
22 | CC1(c2ccc(Cl)cc2)SCCS1 [Compound 24, 2-(4-Chlorophenyl)-2-methyl-1,3-dithiolane] | 1318 | – | inhibition at 33 µM [2]: 21 ± 2%
23 | COC(=O)CCCC1(c2ccc(F)cc2)OCCO1 [Compound 9, Methyl 4-[2-(4-fluorophenyl)-1,3-dioxolan-2-yl]butanoate] | 1071 | – | inhibition at 1 µM ([2]; compound 1 μM): 16 ± 1%
24 | CCC1(CC)COC(c2ccc(F)c(C#N)c2)OC1 [Compound 43, 5-(5,5-Diethyl-1,3-dioxan-2-yl)-2-fluorobenzenecarbonitrile] | 1106 | 34 ± 1 | –
25 | CCC1(c2ccc(Cl)cc2)OCC(C)O1 (stereo not shown) [Compound 42, 2-(4-Chlorophenyl)-2-ethyl-4-methyl-1,3-dioxolane] | 1168 | – | –
26 | CC1(c2ccc(Cl)cc2)OCCO1 [Compound 21, 2-(4-Chlorophenyl)-2-methyl-1,3-dioxolane] | 1220 | – | –
27 | Clc1ccc(C2=NCCO2)cc1 [Compound 44, 2-(4-Chlorophenyl)-4,5-dihydro-1,3-oxazole] | 1294 | – | –
28 | Cc1ccc(C2(C)SCCS2)cc1 [Compound 18, 2-Methyl-2-(4-methylphenyl)-1,3-dithiolane] | – | 40 ± 1 | significant inhibition of MIF-induced proliferation ([1]; 10 μM, P<0.05, FIG. 9): significant inhibition
29 | CCCCCCC1(c2cc(OC)cc(OC)c2)OCCO1 [Compound 41, 2-(3,5-Dimethoxyphenyl)-2-hexyl-1,3-dioxolane] | – | 26 ± 1 | –
30 | OCCCCC1(c2ccc(F)cc2)OCCO1 [Compound 10, 4-[2-(4-Fluorophenyl)-1,3-dioxolan-2-yl]butan-1-ol] | 1187 | – | –
31 | CC1CSC(c2ccc(C#N)cc2)O1 (stereo not shown) [Compound 32, 4-(5-Methyl-1,3-oxathiolan-2-yl)benzonitrile] | 1196 | 14 ± 4 | –
32 | CCC1(c2ccc(OC)cc2)OCCO1 [Compound 16, 2-Ethyl-2-(4-methoxyphenyl)-1,3-dioxolane] | 1335 | – | –
33 | N#Cc1ccc(C2OCCS2)cc1 (stereo not shown) [Compound 30, 4-(1,3-Oxathiolan-2-yl)benzonitrile] | – | 31 ± 2 | –

Reference: patent publication US7863313B2, “Methods for the treatment of inflammatory diseases” (Cortical PTY LTD, priority 2003, dated 2011)
